The text below walks through data of patent US9222016B2, “Compound having fluorescent chromophore, ion concentration sensor including compound, reagent including compound, reagent kit provided with reagent, precursor of compound, and method for synthesizing compound” (National University Corporation Hokkaido University, priority 2011, dated 2015).

Series [1] in a line: Fluorescence spectrum measurement of triazapentalenes (Example 3). It counts as physicochemical. To be noted: for λem (emission wavelength): excitation at absorption maximum; for φr (relative fluorescence quantum yield): dichloromethane, standard 9,10-bis(phenyl ethynyl)anthracene (0.96). How it is done:
The fluorescence spectrum of various triazapentalenes that have been synthesized by the same method as described in Example 1 and Example 2 was measured. A method for measurement will be specifically described below.
As triazapentalenes, compounds with the substituent group being a phenyl group, methoxyphenyl group, 2-cyanophenyl group, methoxycarbonylphenyl group, methyl ester group, diphenyl group, 3-cyanophenyl group, and nitrophenyl group were used.
(§1) Each of the above compounds was made into solution with concentration shown in Table 2 using dichloromethane as a solvent. […] The concentration of a sample solution was adjusted such that the intensity (Abs.) of absorption maximum wavelength was 0.100±0.005, and using a spectrophotometer (manufactured by Hitachi High-Technologies Corporation, U-3500), each fluorescence spectrum was measured with excitation wavelength (λex)=326 nm to 412 nm that was equal to absorption maximum wavelength. The fluorescence quantum yield was determined using 9,10-bis(phenyl ethynyl)anthracene (absolute fluorescence quantum yield=0.96) as a standard substance.
In FIG. 1 and Table 2, with regard to a substituent group, Ph represents a phenyl group, Me represents a methyl group, CO2Me represents a methyl ester group, OMe represents a methylalkoxy group, and CN represents a cyano group. Further, in Table λex represents excitation wavelength, ε represents a molar extinction coefficient, λem represents emission wavelength, φr represents a relative fluorescence quantum yield using 9,10-bis(phenyl ethynyl)anthracene (absolute fluorescence quantum yield=0.96) as a standard, and “−” represents no measurement data available.

The conditions of series [2]: standard substance; cited from earlier work.
For series [3] the following is noted: substituent at R^5; cited from earlier work.
A short description of series [4]: Solvatochromic fluorescence of triazapentalenes in various solvents (Example 4). It counts as physicochemical. As to conditions: dichloromethane, acetonitrile, benzene. On the procedure:
The fluorescence of a triazapentalene compound whose substituent group was -PhCN was measured in various solvents. A method for measurement will be specifically described below.
As solvents, dichloromethane (manufactured by Junsei Chemical Co., Ltd.), acetonitrile (manufactured by Kanto Chemical Co., Inc.), benzene (manufactured by Nacalai Tesque, Inc.), and acetone (manufactured by Nacalai Tesque, Inc.) were individually used.
Each of the triazapentalene compound whose substituent group was -PhCN was dissolved in the above solvent. With regard to the concentration of each solution, the concentration of solution with dichloromethane being used as the solvent was 5.81×10^−6 mol/L, the concentration of solution with acetonitrile being used as the solvent was 3.65×10^−6 mol/L, the concentration of solution with benzene being used as the solvent was 5.43×10^−6 mol/L, and the concentration of solution with acetone being used as the solvent was 6.63×10^−6 mol/L. Using a […] (manufactured by Hitachi High-Technologies Corporation, F-4500), the ultraviolet absorption spectrum was measured, and the absorption maximum wavelength (λmax) was determined to be 382 nm. […] The fluorescence quantum yield was determined using 9,10-bis(phenyl ethynyl)anthracene (absolute fluorescence quantum yield=0.96) as a standard substance.

Series [5] is described as follows: Fluorescence of disubstituted product (Example 7). As to conditions: CH2Cl2 solution, excitation wavelength 370 nm. It counts as physicochemical. The source says:
Disubstituted products other than the disubstituted product represented by the chemical formula 20 are synthesized by the same method as the disubstituted product represented by the chemical formula 20. The numerical values in Table 4 and Table 5 were obtained in CH2Cl2 solution under a condition of an excitation wavelength of 370 nm

A short description of series [6]: Maximum absorption wavelength, maximum fluorescence wavelength and fluorescence quantum yield (Example 6). The series is classed as physicochemical. To be noted: same manner as Example 3. On the procedure: as §1
For each of the compounds shown in Table 3, the maximum absorption wavelength (λabs^max), maximum fluorescence wavelength (λem^max), and fluorescence quantum yield (ΦF) were measured. Further, the Hammett constant (σp) of substituent group was together described in Table 3. In Table 3, “-” represents no measurement data available. The measurement of the absorption wavelength, fluorescence wavelength, and fluorescence quantum yield was carried out in the same manner as described in Example 3. Here, a method of synthesizing compounds of 1o^a and 1r will be later described in Example 8. Compounds of 1e, 1n, 1f, 1g, 1l, 1k, 1h, and 1m, which are shown in Table 3 were synthesized by the method and condition described in Examples 1 to 2. Further, the compound 1a shown in Table 3 was synthesized under the under the same condition as in Example 1 and Example 2 except that a CO2CH3 part in the chemical formula 13 of the reaction formula (5) was replaced with a hydrogen atom. Thereby, the compound 1a having a triazapentalene backbone whose R^5 position was bound with the hydrogen atom was obtained.

With `Cn1c(-c2cccc(C#N)c2)cn2ccc[n+]12`, in series [1] (dichloromethane solution), the “λex (excitation wavelength, equal to absorption maximum wavelength λmax)” value (from here on “λex”) came to 330 nm and the “λem (emission wavelength)” value is recorded as 481 nm.
In the case of `C(#Cc1c2ccccc2c(C#Cc2ccccc2)c2ccccc12)c1ccccc1` [9,10-bis(phenylethynyl)anthracene], the “absolute fluorescence quantum yield” value in series [2] is 0.96.
Take `Cn1c(-c2ccccc2)cn2ccc[n+]12` [Compound 1f]: in series [1] (dichloromethane solution), the “ε (molar extinction coefficient)” value was 3.82 10^3 cm − M^−1; the “λex” value was 326 nm; the “λem (emission wavelength)” value is 419 nm. Moreover, the “φr (relative fluorescence quantum yield)” value in series [1] is recorded as 3.0%. The “Hammett σP of substituent group” value in series [3] is 0.00.
`Cn1c(-c2ccc(C#N)cc2)cn2ccc[n+]12` [Compound 1h]: the “absorption maximum wavelength (λmax)” value in series [4] (acetone solutions) stood at 382 nm. Moreover, the “solvatochromism of fluorescence spectrum (FIG. 2)” value in series [4] (acetone, λex 382 nm) is “significant solvatochromism was observed”. In series [5], the “λabs (absorption wavelength)” value amounted to 381 nm, the “λem (fluorescence wavelength)” value came out at 509 nm and the “φF (quantum yield)” value is reported as 0.18. In series [1] (dichloromethane solution), the “fluorescence intensity (FIG. 1)” value was “stronger fluorescence intensity”; the “ε (molar extinction coefficient)” value is 2.85 10^3 cm − M^−1; the “λex” value was 381 nm; the “λem (emission wavelength)” value is reported as 509 nm. Besides, the “φr (relative fluorescence quantum yield)” value in series [1] was found to be 18%. In series [6], the “λabs^max (maximum absorption wavelength)” value worked out at 381 nm, the “λem^max (maximum fluorescence wavelength)” value (“λem^max” below) amounted to 509 nm and the “φF (fluorescence quantum yield)” value is reported as 0.18. In series [3], the “Hammett σP of substituent group” value is on record as 0.71.
As for `COC(=O)c1ccc(-c2cn3ccc[n+]3n2C)cc1` [Compound 1k], in series [1] (dichloromethane solution), the “ε (molar extinction coefficient)” value was 3.02 10^3 cm − M^−1; the “λex” value stood at 376 nm; the “λem (emission wavelength)” value was found to be 510 nm. In series [1], the “φr (relative fluorescence quantum yield)” value was 51%. In series [6], the “λabs^max (maximum absorption wavelength)” value is 376 nm, the “λem^max” value came to 510 nm and the “φF (fluorescence quantum yield)” value was 0.51. In addition, the “Hammett σP of substituent group” value in series [3] is given as 0.47.
As for `Cn1c(-c2ccc([N+](=O)[O-])cc2)cn2ccc[n+]12` [Compound 1m], in series [1] (dichloromethane solution), the “λex” value is 412 nm and the “λem (emission wavelength)” value is recorded as 556 nm. For the same molecule, the “φr (relative fluorescence quantum yield)” value in series [1] is reported as 16%. In series [6], the “λabs^max (maximum absorption wavelength)” value came to 412 nm, the “λem^max” value turned out to be 556 nm and the “φF (fluorescence quantum yield)” value was 0.16. Besides, the “Hammett σP of substituent group” value in series [3] is recorded as 0.81.
As for `COc1ccc(-c2cn3ccc[n+]3n2C)cc1` [Compound 1n], in series [1] (dichloromethane solution), the “ε (molar extinction coefficient)” value is reported as 5.70 10^3 cm − M^−1; the “λex” value was determined as 330 nm; the “λem (emission wavelength)” value was found to be 413 nm. Moreover, the “φr (relative fluorescence quantum yield)” value in series [1] is given as 6.2%. In series [6], the “λabs^max (maximum absorption wavelength)” value is 330 nm, the “λem^max” value turned out to be 413 nm and the “φF (fluorescence quantum yield)” value is 0.062. In series [3], the “Hammett σP of substituent group” value was −0.28.
